According to PubChem BioAssay (NCI):
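Following 48 hours of exposure in 96-well plates, responses at five concentrations were used to interpolate endpoints linearly. TGI marks complete inhibition of growth.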

Assays:
Experiment in all cases: growth of human tumour cells (NCI), 48 h
786-0 renal = tested on: 786-0 renal
A549 NSCLC = tested on: A549 NSCLC
ACHN renal = tested on: ACHN renal
BT-549 breast = tested on: BT-549 breast
CAKI-1 renal = tested on: CAKI-1 renal
CCRF-CEM leukemia = tested on: CCRF-CEM leukemia
COLO 205 colon = tested on: COLO 205 colon
DU-145 prostate = tested on: DU-145 prostate
EKVX NSCLC = tested on: EKVX NSCLC
HCC-2998 colon = tested on: HCC-2998 colon
HCT-116 colon = tested on: HCT-116 colon
HCT-15 colon = tested on: HCT-15 colon
HL-60(TB) leukemia = tested on: HL-60(TB) leukemia
HOP-62 NSCLC = tested on: HOP-62 NSCLC
HOP-92 NSCLC = tested on: HOP-92 NSCLC
HS 578T breast = tested on: HS 578T breast
HT29 colon = tested on: HT29 colon
IGROV1 ovarian = tested on: IGROV1 ovarian
K-562 leukemia = tested on: K-562 leukemia
KM12 colon = tested on: KM12 colon
LOX IMVI melanoma = tested on: LOX IMVI melanoma
M14 melanoma = tested on: M14 melanoma
MALME-3M melanoma = tested on: MALME-3M melanoma
MCF7 breast = tested on: MCF7 breast
MDA-MB-231 breast = tested on: MDA-MB-231 breast
MDA-MB-435 = tested on: MDA-MB-435
MDA-N = tested on: MDA-N
MOLT-4 leukemia = tested on: MOLT-4 leukemia
NCI-H226 lung = tested on: NCI-H226 lung
NCI-H23 lung = tested on: NCI-H23 lung
NCI-H460 lung = tested on: NCI-H460 lung
NCI-H522 lung = tested on: NCI-H522 lung
NCI/ADR-RES ovarian = tested on: NCI/ADR-RES ovarian
OVCAR-3 ovarian = tested on: OVCAR-3 ovarian
OVCAR-4 ovarian = tested on: OVCAR-4 ovarian
OVCAR-5 ovarian = tested on: OVCAR-5 ovarian
OVCAR-8 ovarian = tested on: OVCAR-8 ovarian
PC-3 prostate = tested on: PC-3 prostate
RPMI-8226 leukemia = tested on: RPMI-8226 leukemia
SF-268 CNS = tested on: SF-268 CNS
SF-295 CNS = tested on: SF-295 CNS
SF-539 CNS = tested on: SF-539 CNS
SK-MEL-2 melanoma = tested on: SK-MEL-2 melanoma
SK-MEL-28 melanoma = tested on: SK-MEL-28 melanoma
SK-OV-3 ovarian = tested on: SK-OV-3 ovarian
SN12C renal = tested on: SN12C renal
SNB-19 CNS = tested on: SNB-19 CNS
SNB-75 CNS = tested on: SNB-75 CNS
SR leukemia = tested on: SR leukemia
SW-620 colon = tested on: SW-620 colon
TK-10 renal = tested on: TK-10 renal
U251 CNS = tested on: U251 CNS
UACC-257 melanoma = tested on: UACC-257 melanoma
UACC-62 melanoma = tested on: UACC-62 melanoma
UO-31 renal = tested on: UO-31 renal

Measured: TGI

Cc1nc2ccc(S(=O)(=O)Nc3ccc(Cl)cc3)cc2c(=O)n1NC(=O)CNc1ccc(Cl)cc1
> 100 µM: all assays above
